# In patent publication US5041579A, “Platinum complexes and uses therewith” (Ajinomoto Co., Inc., priority 1987, dated 1991):
# How the values were obtained:
# Sarcoma-180 cells = assay: Anti-tumor activity testing 1: life-prolonging rate in mice transplanted intraperitoneally with Sarcoma-180 cells; format: in vivo, Female ICR/CRJ mice; settings: day after transplantation
# Method: Female ICR/CRJ mice of 5-week age were used as test animals (five head for each group).
# (§1) Sarcoma-180 cells (1×10^6) were intraperitoneally transplanted to each of the test animals, each of the Pt(II) complexes listed in Table 1 was then injected intraperitoneally on the next day, and the life-prolonging rate was measured for each test group. Physiologically saline was used as the solvent of injections.
# L1210 cells [1] = assay: Anti-tumor activity testing 2: life-prolonging rate in mice transplanted intraperitoneally with L1210 cells; format: in vivo, Female BDF1 mice; settings: days 1, 5 and 9
# Method: Female BDF1 mice of 5-week age were used as test animals (five head for each group).
# as §1, with “L1210” for “Sarcoma-180”, “(1×10^5)” for “(1×10^6)”, “2” for “1”, “one” for “on the next”, “day, five days and nine days after transplantation (a total of three times),” for “day,”
# Colon 38 cells [2] = assay: Anti-tumor activity testing 3: tumor-growth inhibition of subcutaneous Colon 38, intraperitoneal injection; format: in vivo, female BDF mice; settings: days 1, 8 and 15, 21 days after transplantation
# Method: female BDF mice of 5-week age were used as test animals (five head for each group).
# Colon 38 cells (40 mg) were subcutaneously transplanted to each of the test animals at the haunch, each of the Pt(II) complexes listed in Table 3 was then injected intraperitoneally 1 day, 8 days and 15 days after transplantation (a total of three times), and the tumor-growth inhibition rate was measured for each test group 21 days after transplantation.
# L1210 cells [3] = assay: Growth inhibition of L1210 cells ([3H]-thymidine uptake); format: cell-based, mouse; settings: 46 h incubation plus 2 h with [3H]-thymidine, 37° C.
# Method: (§2) L1210 cells and cisplatin-resistant L1210 cells under subcultivation were incubated in RPMI1640 medium containing 10% fetal bovine serum at 37° C. for 46 hours in an atmosphere containing 5% carbon dioxide. [^3 H]-thymidine was added to the grown cells, and incubation was continued for an additional two hours. The growth inhibition rate of a drug was calculated from the amounts of [^3 H]-thymidine taken into the cells in the presence and absence of that drug, and the 50% growth inhibition concentration (IC50) was determined from the graph of inhibition rate plotted against drug concentration. The degree of drug resistance was calculated from the ratio of IC50 for cisplatin-resistant L1210 cells to that for L1210 cells.
# [4] = system: cisplatin-resistant L1210 cells; assay: Growth inhibition of cisplatin-resistant L1210 cells ([3H]-thymidine uptake); format: cell-based, mouse; settings: for IC50: 46 h incubation plus 2 h with [3H]-thymidine, 37° C.; for Degree of Resistance: ratio of IC50 for cisplatin-resistant L1210 cells to that for L1210 cells, 2880 min
# Method: as §2
# Colon 38 cells [5] = assay: Anti-tumor activity testing 4: tumor-growth inhibition of subcutaneous Colon 38, intravenous injection; format: in vivo, Female BDF mice; settings: 21 days after transplantation
# From the text: Female BDF mice of 5-week age were used as test animals (eight head for each group).
# [6] = Solubility in physiological saline; format: physicochemical
# [7] = cited from earlier work
Structure (SMILES),"Life-prolonging Rate (Sarcoma-180 cells; 4.0 mg/Kg × 1, i.p.) [%]","Life-prolonging Rate (Sarcoma-180 cells; 8.0 mg/Kg × 1, i.p.) [%]","Life-prolonging Rate (Sarcoma-180 cells; 16.0 mg/Kg × 1, i.p.) [%]","Life-prolonging Rate (L1210 cells [1]; 7.5 μmol/Kg × 3, i.p.) [%]","Life-prolonging Rate (L1210 cells [1]; 15.0 μmol/Kg × 3, i.p.) [%]","Life-prolonging Rate (L1210 cells [1]; 30.0 μmol/Kg × 3, i.p.) [%]","Tumor-growth Inhibition Rate (Colon 38 cells [2]; 20.0 μmol/Kg × 3, i.p.) [%]","Tumor-growth Inhibition Rate (Colon 38 cells [2]; 30.0 μmol/Kg × 3, i.p.) [%]","Tumor-growth Inhibition Rate (Colon 38 cells [2]; 45.0 μmol/Kg × 3, i.p.) [%]",IC50 (L1210 cells [3]) [nM],IC50 [4] [µM],Degree of Resistance [4],"Tumor-growth Inhibition Rate (Colon 38 cells [5]; 2 mg/kg × 6, i.v.) [%]","Tumor-growth Inhibition Rate (Colon 38 cells [5]; 4 mg/kg × 6, i.v.) [%]","Tumor-growth Inhibition Rate (Colon 38 cells [5]; 8 mg/kg × 6, i.v.)","Tumor-growth Inhibition Rate (Colon 38 cells [5]; 16 mg/kg × 6, i.v.)",other results
"O=C1[O][Pt]2([NH]C3CCCC(O)C3[NH]2)[O]C1=O (stereo not drawn) [Compound No. 1, Cis-oxalato-(1/2,3)-2,3-diamino-1-cyclohexanolplatinum(II)]",189,218,266,115,115,132,24,16,45,3500,6.6,1.9,–,–,–,–,–
"NC1CCCC(O)C1N.O=S(=O)([O-])[O-].[Pt+2] (stereo not drawn) [Compound No. 2, Cis-sulfato-(1/2,3)-2,3-diamino-1-cyclohexanolplatinum(II)]",295,532,534,136,134,151,47,78,97,1700,3.2,1.9,22,41,90%,toxic,Solubility [6]: > 20.0 mg/mL
"O=S1(=O)[O][Pt]2([NH]C3CC([NH]2)C(O)C(O)C3O)[O]1 (stereo not drawn) [Compound No. 7, Cis-sulfato-2-deoxystreptamineplatinum(II)]",–,126,120,–,102,109,–,–,–,–,–,–,–,–,–,–,"Life-prolonging Rate (Sarcoma-180 cells; 32.0 mg/Kg × 1, i.p.): 241%; Life-prolonging Rate (L1210 cells [1]; 60.0 μmol/Kg × 3, i.p.): 119%"
"NC1CCCC(O)C1N.O=S1(=O)[O][Pt][O]1 (single isomer, unassigned; (+)) [Compound No. 8, (+)-Cis-sulfato-(1/2,3)-2,3-diaminocyclohexanol-platinum(II)]",–,–,–,–,–,–,–,–,–,–,–,–,34,35,61%,91%,–
"O=S1(=O)[O][Pt]2([NH]C3CCCC(C3)[NH]2)[O]1 [Compound No. 5, Cis-sulfato-1,3-diaminocyclohexaneplatinum(II)]",202,187,236,121,189,155,36,56,56,3100,7.9,2.5,–,–,–,–,–
"NC1CCCC(O)C1N.O=S1(=O)[O][Pt][O]1 (single isomer, unassigned; (-)) [Compound No. 9]",–,–,–,–,–,–,–,–,–,–,–,–,40,88,88%,toxic,–
"O=C1C[O][Pt]2([NH]C3CCCC(O)C3[NH]2)[O]1 (stereo not drawn) [Compound No. 3, Cis-glycolato-(1/2,3)-2,3-diamino-1-cyclohexanolplatinum(II)]",212,182,252,116,122,147,70,72,96,1300,2.5,1.9,–,–,–,–,–
"N.N.[Cl][Pt][Cl] [Cisplatin, cis-dichlorodiamineplatinum(II), reference compound]",–,–,–,–,–,–,–,–,–,1000,10.5,10.5,58,84,toxic,–,"Tumor-growth Inhibition Rate (Colon 38 cells [5]; 1 mg/kg × 6, i.v.): 19%; anti-tumor activity (in words) ([7]; Nature, 222, 385 (1969)): high anti-tumor activity; side effects (in words) ([7]; clinical use): severe side effects, such as toxicity to the kidney, nausea, emesis and bradyacusia"
"NC1CCCC(N)C1.O=C1[O][Pt][O]C(=O)C12CCC2 [Compound No. 6, Cis-cyclobutane-1,1-dicarboxylato-1,3-diaminocyclohexaneplatinum(II)]",–,–,126,–,–,98,–,–,–,–,–,–,–,–,–,–,"Life-prolonging Rate (Sarcoma-180 cells; 32.0 mg/Kg × 1, i.p.): 106%; Life-prolonging Rate (L1210 cells [1]; 60.0 μmol/Kg × 3, i.p.): 104%"
"NC1CCCC(N)C1.O=C1[O][Pt][O]C1=O (stereo not drawn) [Compound No. 4, Cis-oxalato-1,3-diaminocyclohexaneplatinum(II)]",248,258,364,127,222,245,54,77,88,2400,5,2.1,–,–,–,–,–
